In patent US12653822B2, “Aripiprazole formulations having increased injection speeds” (ALKERMES PHARMA IRELAND LIMITED, priority 2014, dated 2026):

What was measured:
[1] = cited from earlier work
[2] = Phase 3 extension study: rapid IM injection of Compound 1, pain and injection site reactions; assay type: in vivo, human; settings: fast injection
Protocol: Injection site reactions and pain upon IM injection of Compound 1 are a potential safety concern. A Phase 3, multicenter, extension study was conducted in 81 sites to assess the effect of rapid IM injections of Compound 1 on human patients diagnosed with stable schizophrenia. Briefly, 332 subjects enrolled in the study were assigned PFS. Compound 1 is formulated as a pre-filled syringe (PFS) of an extended release aqueous suspension of a therapeutically effective amount of Compound 1. An injection volume of 3.4 mL or 1.6 mL of the aqueous suspension was administered according to protocol I at a rate of less than 10 seconds by inserting the 20 gauge needle in the gluteal muscle. ISRs upon IM injection of Compound 1 were assessed at each visit. Over 5000 injections of Compound 1 have been administered intramuscularly with an ISR rate of less than 1%.
• 1. TAP the pre-filled syringe at least 10 times to dislodge any material that may have settled. • 2. […] Replace with new needle (Steps 3 & 4) and administer into an adjacent site in the same gluteal muscle (Steps 5 & 6).] • If you are unable to complete the injection, replace with new needle (Steps 3 & 4) and readminister into an adjacent site in the same gluteal muscle (Steps 5 & 6). • 7. […]

Row | SMILES | Tissue irritation ([1]; following intramuscular (IM) injection and subcutaneous (SC) injection) | Pharmacokinetic profile ([1]; injections) | injection site reactions and/or elevated pain levels reported, % of patients [2] [%]
1 | O=C1CCc2ccc(OCCCCN3CCN(c4cccc(Cl)c4Cl)CC3)cc2N1 [aripiprazole free base, 7-{4-[4-(2,3-dichlorophenyl)-1-piperazinyl]butoxy}-3,4-dihydro-2(1H)-quinolinone] | moderate to severe | prolonged | 
2 | CCCCCCCCCCCC(=O)OCN1C(=O)CCc2ccc(OCCCCN3CCN(c4cccc(Cl)c4Cl)CC3)cc21 [Compound 1, (7-(4-(4-(2,3-dichlorophenyl)piperazin-1-yl)butoxy)-2-oxo-3,4-dihydroquinolin-1(2H)-yl)methyl dodecanoate] |  |  | < 1
